Assay results: paper PMC2897734 (Current topics in medicinal chemistry, 2009)

How the values were obtained:
Assay type in all cases: binding
[1] = molecular target: T1, phosphoglycerate mutase (PGM) (Plasmodium falciparum, UniProt Q8IIG6); assay: fragment cocktail soak, crystal electron density
T1 sequence (Q8IIG6 1-250): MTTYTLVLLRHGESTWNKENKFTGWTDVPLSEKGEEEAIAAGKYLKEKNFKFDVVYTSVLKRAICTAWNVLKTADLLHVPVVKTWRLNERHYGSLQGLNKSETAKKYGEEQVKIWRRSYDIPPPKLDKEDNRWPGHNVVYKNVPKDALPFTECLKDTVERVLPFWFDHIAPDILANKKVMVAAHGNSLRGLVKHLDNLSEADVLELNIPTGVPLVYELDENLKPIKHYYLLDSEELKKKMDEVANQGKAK

uracil-DNA glycosylase [2] = molecular target: T2, uracil-DNA glycosylase (Leishmania naiffi, UniProt D0VWU0); assay: fragment cocktail soak, crystal structure
T2 sequence (D0VWU0 1-260): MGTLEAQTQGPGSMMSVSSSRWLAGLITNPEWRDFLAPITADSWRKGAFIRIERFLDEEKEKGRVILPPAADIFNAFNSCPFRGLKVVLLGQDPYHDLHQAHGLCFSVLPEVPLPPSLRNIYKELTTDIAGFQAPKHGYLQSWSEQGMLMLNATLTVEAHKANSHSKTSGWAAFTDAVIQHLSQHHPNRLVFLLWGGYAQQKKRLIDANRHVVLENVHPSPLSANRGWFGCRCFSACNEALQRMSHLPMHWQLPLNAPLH

[3] = molecular target: coproporphyrinogen III oxidase (Leishmania major, UniProt P84155); assay: fragment cocktail soak, crystal structure
coproporphyrinogen III oxidase, sequence (P84155 whole entry, the tested form may be a part): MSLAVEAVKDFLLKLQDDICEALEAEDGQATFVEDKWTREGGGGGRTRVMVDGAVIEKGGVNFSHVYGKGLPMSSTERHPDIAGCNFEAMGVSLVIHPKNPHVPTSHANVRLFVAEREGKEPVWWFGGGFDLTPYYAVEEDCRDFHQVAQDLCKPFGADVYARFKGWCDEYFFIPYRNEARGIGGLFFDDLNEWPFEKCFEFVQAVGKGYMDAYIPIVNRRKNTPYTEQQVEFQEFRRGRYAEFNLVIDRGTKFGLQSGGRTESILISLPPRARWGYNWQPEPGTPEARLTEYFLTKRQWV

[4] = molecular target: T3, putative adenylate kinase (Leishmania major, UniProt Q4Q7A6); assay: fragment cocktail soak, crystal electron density
T3 sequence (Q4Q7A6 1-180): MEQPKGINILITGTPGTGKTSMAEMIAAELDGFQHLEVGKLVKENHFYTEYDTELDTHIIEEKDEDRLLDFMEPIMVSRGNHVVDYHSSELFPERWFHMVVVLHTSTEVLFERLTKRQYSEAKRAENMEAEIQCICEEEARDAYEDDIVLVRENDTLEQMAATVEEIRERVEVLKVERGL

uracil-DNA glycosylase [5] = molecular target: T2, uracil-DNA glycosylase; assay: fragment cocktail soak, crystal structure; remark: listed apart in the source

## O=C(O)c1ccc(-c2ccccc2)o1 [5-phenyl-2-furoic acid]
[1]
  fragment cocktail soak, crystal electron density: Electron density for 5-Phenyl-2-furoic acid when bound to P.falciparum PGM (left)

## O=C(O)c1ccc2cccc(O)c2n1 [8-hydroxyquinoline-2-carboxylic acid]
uracil-DNA glycosylase [2]
  fragment cocktail soak, crystal structure: DMSO and 8-hydroxyquinoline-2-carboxylic acid (left lower)

## O=C(O)c1cc2cc(F)ccc2[nH]1 [5-fluoroindole-2-carboxylic acid]
[3]
  fragment cocktail soak, crystal structure: Fragments from two different cocktails were found to bind: 5-fluoroindole-2-carboxylic acid (PDB: 3DWS)

## Cc1cc(N)c2ccccc2n1 [4-amino-2-methylquinoline]
[4]
  fragment cocktail soak, crystal electron density: Electron density for 4-amino-2-methylquinoline when bound to L.major adenylate kinase (left)

## COc1ccc(Cl)cc1C(=O)O [5-chloro-2-methoxybenzoic acid]
uracil-DNA glycosylase [5]
  IC50: ~15 mM

## c1cc(N2CCOCC2)ccn1 [4-morpholinopyridine]
uracil-DNA glycosylase [2]
  fragment cocktail soak, crystal structure: Fragments bound to L.naiffi uracil-DNA glycosylase: 4-morpholinopyridine (left upper)
